Laboratory results from patent US12044651B2, “Sensor device and methods” (SCENTIAN BIO LIMITED, priority 2016, dated 2024).

Experiments:
Type in all cases: binding
Or22a [1] = molecular target: T1, Or22a (Drosophila melanogaster, UniProt P81909); experiment: EIS sensor, Or22a nanodiscs on gold electrode (Example 4)
T1 sequence (P81909 1-397): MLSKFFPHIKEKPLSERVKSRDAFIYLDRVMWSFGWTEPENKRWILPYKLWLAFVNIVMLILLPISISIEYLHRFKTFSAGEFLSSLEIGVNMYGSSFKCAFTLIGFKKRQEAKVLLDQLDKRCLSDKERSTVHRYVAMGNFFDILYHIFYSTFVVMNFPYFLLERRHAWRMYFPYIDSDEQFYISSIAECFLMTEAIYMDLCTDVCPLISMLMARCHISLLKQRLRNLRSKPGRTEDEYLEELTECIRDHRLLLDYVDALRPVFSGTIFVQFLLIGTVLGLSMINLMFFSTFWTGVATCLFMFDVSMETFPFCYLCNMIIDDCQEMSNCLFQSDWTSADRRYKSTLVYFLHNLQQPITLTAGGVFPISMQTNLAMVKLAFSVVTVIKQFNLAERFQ

OR35a = molecular target: T2, OR35a (Drosophila melanogaster, UniProt Q9V3Q2); experiment: CNT-FET sensor covalently functionalized with Or35a nanodiscs (Example 3)
T2 sequence (Q9V3Q2 1-409): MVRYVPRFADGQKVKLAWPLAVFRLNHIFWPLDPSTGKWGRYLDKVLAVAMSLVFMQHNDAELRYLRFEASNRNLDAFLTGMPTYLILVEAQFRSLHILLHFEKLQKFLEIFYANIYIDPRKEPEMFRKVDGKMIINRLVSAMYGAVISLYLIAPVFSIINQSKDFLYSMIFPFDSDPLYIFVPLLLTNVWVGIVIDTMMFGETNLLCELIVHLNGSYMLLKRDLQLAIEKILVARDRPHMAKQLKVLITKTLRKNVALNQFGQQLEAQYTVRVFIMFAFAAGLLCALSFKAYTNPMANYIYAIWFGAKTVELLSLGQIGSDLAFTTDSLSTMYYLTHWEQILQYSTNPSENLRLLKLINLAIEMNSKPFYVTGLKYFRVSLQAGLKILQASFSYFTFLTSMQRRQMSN
Description: The dispersion was sonicated until a clear solution was obtained. The temperature was kept at 25° C. throughout the sonication process. The thiolpyridine solution was prepared by dissolving 10 mg of 2-Mercaptopyridine (99%, Sigma Aldrich) in 1 ml of methanol. The solution was spun coated on a polydimethylsiloxane (PDMS) surface at 2000 rpm for one minute. Before the spin coating process, the PDMS surface was cleaned by a 50 W Oxygen plasma for 1 minute to improve the wettability. The cleaned substrates were placed upside down on the PDMS surface for three minutes and washed in ethanol to remove the excess thiolpyridine molecules. Then the substrates were transferred into the CNT suspension and immersed into the suspension for 10 minutes. The samples were removed from the suspension and dipped into Ethanol for another 10 minutes to remove the thiolpyridine molecules in the SWNT network. The alignment markers were deposited by defining the markers by photolithography and thermal evaporation of 5 nm Chromium and 50 nm of Gold. The metal Lift off was done by acetone immersion for 15 minutes followed by an Isopropyl alcohol (IPA) wash and N2 blow dry. The result is a uniform thin film CNT network covering the entire substrate surface. The purification procedure is a variation on the one detailed in […] et al. 2013^14. […] Purity was assessed on Coomassie stained SDS-PAGE gels and Western blotting. […]

Or22a [2] = molecular target: T1, Or22a; experiment: EIS sensor, Or22a liposomes on gold electrode, optimized conditions (Example 5)
Or10a = molecular target: T3, Or10a (Drosophila melanogaster, UniProt Q9VYZ1); experiment: EIS sensor, Or10a liposomes on gold electrode, optimized conditions (Example 5)
T3 sequence (Q9VYZ1 1-406): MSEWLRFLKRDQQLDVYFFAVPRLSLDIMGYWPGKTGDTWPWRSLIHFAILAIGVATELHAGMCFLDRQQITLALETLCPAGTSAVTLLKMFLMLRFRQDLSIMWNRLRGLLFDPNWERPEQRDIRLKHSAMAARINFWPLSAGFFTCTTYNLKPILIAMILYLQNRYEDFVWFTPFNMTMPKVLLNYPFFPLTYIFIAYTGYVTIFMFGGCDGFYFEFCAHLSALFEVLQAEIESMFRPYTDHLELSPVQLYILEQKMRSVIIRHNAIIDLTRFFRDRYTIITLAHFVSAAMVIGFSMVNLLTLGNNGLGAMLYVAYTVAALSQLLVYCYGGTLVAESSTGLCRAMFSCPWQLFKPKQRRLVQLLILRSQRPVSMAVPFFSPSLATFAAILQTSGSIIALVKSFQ

Compound: CCC/C=C/C=O [E2-hexenal]
- EIS response to control ligand (Or22a [1]): do not respond
- limit of detection (OR35a; nanodiscs 1:100 dilution): below 1 fM
- concentration at which clear electronic response starts (OR35a; real time current measurement mode): 1 fM

Compound: CCCCCC(=O)OC [methyl hexanoate]
- LOD (Or22a [2]; EIS): 10 fM
- EIS response to control ligand (Or10a): do not respond
- LOD (Or22a [1]; EIS): < 100 pM

Compound: COC(=O)c1ccccc1O [methyl salicylate]
- EIS response to control ligand (Or22a [2]): do not respond
- LOD (Or10a; EIS): 1 pM
